What was measured:
[1] = biological target: CDK4/Cyclin D3 (Homo sapiens) (UniProt P11802+P30281); test: Inhibition of CDK4/cyclinD3 (unknown origin) at 100 nM preincubated for 20 mins followed by [gamma-33P]ATP addition measured after 120 mins in presence of ATP by Hot-SpotSM kinase assay relative to control; format: protein-complex assay; details: time 140.0 min
Kasumi 1 [2] = test: Antiproliferative activity against human Kasumi 1 cells incubated for 72 hrs by CCK8 assay; format: functional, cell-based; details: Kasumi 1, 72 h
U-937 = test: Antiproliferative activity against human U-937 cells incubated for 72 hrs by CCK8 assay; format: functional, cell-based; details: U-937, 72 h
[3] = biological target: Cyclin-dependent kinase 13/Cyclin-K (Homo sapiens) (UniProt Q14004+O75909); test: Inhibition of CDK13/cyclinK (unknown origin) at 100 nM preincubated for 20 mins followed by [gamma-33P]ATP addition measured after 120 mins in presence of ATP by Hot-SpotSM kinase assay relative to control; format: protein-complex assay; details: time 140.0 min
Cyclin-dependent kinase 13/Cyclin-K (Homo sapiens), sequence (O75909 whole entry, looked up): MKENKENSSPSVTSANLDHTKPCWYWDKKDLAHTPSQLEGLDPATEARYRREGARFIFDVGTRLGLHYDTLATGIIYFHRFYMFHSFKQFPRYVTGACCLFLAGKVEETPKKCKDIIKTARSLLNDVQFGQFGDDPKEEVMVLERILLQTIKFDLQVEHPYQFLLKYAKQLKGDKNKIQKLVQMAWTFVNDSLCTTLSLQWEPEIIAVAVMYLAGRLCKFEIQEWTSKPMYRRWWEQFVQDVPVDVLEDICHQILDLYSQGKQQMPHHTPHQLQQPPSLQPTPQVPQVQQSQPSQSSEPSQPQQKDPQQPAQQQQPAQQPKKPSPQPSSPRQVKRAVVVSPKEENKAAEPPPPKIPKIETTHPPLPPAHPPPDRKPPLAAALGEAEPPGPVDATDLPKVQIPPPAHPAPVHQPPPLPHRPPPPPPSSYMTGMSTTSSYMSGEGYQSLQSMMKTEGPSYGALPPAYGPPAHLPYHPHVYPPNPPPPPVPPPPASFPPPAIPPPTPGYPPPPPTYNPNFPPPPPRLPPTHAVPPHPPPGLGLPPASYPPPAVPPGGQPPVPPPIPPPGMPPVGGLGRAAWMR
Cyclin-dependent kinase 13/Cyclin-K (Homo sapiens), sequence (Q14004 whole entry, looked up): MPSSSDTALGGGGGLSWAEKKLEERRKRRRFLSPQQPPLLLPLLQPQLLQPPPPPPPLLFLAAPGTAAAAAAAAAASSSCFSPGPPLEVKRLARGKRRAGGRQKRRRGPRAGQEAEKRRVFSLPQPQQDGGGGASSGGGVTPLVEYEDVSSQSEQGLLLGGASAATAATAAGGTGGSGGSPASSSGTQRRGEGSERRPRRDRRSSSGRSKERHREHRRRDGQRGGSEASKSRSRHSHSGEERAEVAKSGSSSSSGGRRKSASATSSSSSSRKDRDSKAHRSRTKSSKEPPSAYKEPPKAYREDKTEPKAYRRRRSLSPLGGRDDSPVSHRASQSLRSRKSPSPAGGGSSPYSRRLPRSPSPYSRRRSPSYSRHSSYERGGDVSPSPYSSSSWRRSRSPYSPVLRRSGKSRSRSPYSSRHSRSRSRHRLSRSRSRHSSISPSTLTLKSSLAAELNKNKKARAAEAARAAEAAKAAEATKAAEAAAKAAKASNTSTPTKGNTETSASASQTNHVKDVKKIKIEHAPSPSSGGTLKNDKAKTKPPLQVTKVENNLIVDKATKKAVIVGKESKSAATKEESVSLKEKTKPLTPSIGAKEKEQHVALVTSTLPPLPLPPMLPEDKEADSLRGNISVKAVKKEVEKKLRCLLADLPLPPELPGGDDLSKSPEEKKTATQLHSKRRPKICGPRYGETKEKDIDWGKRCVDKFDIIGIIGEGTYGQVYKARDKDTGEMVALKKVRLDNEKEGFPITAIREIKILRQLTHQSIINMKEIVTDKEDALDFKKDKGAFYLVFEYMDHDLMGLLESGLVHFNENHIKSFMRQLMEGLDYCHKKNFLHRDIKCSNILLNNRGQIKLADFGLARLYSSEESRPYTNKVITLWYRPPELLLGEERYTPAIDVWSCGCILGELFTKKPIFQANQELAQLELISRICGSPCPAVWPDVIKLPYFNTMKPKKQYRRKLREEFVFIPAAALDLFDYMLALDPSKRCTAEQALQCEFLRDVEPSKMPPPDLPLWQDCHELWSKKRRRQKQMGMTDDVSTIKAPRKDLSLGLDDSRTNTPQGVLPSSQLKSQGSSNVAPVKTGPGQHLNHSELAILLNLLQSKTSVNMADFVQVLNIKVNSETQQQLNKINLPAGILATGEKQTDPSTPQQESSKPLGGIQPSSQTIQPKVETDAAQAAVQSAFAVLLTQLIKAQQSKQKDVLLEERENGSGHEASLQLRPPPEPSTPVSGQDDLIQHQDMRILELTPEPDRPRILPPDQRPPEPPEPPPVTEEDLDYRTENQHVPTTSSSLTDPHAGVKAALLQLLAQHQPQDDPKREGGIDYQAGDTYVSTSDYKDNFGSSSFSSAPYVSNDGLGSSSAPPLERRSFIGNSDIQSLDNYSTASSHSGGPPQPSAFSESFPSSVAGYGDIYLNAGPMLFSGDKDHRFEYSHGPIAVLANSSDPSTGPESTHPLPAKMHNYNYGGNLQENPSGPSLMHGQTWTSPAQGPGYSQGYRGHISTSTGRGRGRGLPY

[4] = biological target: CDK6/cyclin D3 (Homo sapiens) (UniProt P30281+Q00534); test: Inhibition of CDK6/cyclinD3 (unknown origin) at 100 nM preincubated for 20 mins followed by [gamma-33P]ATP addition measured after 120 mins in presence of ATP by Hot-SpotSM kinase assay relative to control; format: protein-complex assay; details: time 140.0 min
[5] = biological target: T1, Cyclin-dependent kinase 5/CDK5 activator 1 (Homo sapiens) (UniProt Q00535+Q15078); test: Inhibition of CDK5/p25NCK (unknown origin) at 100 nM preincubated for 20 mins followed by [gamma-33P]ATP addition measured after 120 mins in presence of ATP by Hot-SpotSM kinase assay relative to control; format: protein-complex assay; details: time 140.0 min
T1 sequence (Q00535 whole entry): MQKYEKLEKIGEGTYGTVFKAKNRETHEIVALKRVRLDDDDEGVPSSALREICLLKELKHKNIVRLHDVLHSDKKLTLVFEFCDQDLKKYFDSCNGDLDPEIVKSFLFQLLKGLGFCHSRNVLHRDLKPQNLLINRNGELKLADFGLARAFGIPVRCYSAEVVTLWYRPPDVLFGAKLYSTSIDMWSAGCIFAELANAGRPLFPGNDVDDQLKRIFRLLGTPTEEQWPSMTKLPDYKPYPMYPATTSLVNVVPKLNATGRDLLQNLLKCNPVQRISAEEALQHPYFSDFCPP
T1 sequence (Q15078 99-307 partner limits assumed): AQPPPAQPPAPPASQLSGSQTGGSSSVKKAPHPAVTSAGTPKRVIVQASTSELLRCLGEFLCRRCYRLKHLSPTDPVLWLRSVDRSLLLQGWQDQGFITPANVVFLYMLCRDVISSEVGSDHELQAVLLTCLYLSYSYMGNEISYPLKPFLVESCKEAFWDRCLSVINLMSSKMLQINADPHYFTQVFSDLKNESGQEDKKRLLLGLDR

[6] = biological target: Cyclin-C/Cyclin-dependent kinase 19 (Homo sapiens) (UniProt Q9BWU1+P24863); test: Inhibition of CDK19/cyclinC (unknown origin) at 100 nM preincubated for 20 mins followed by [gamma-33P]ATP addition measured after 120 mins in presence of ATP by Hot-SpotSM kinase assay relative to control; format: protein-complex assay; details: time 140.0 min
[7] = biological target: CDK1/Cyclin A (Homo sapiens) (UniProt P06493+P20248); test: Inhibition of CDK1/cyclinA2 (unknown origin) at 100 nM preincubated for 20 mins followed by [gamma-33P]ATP addition measured after 120 mins in presence of ATP by Hot-SpotSM kinase assay relative to control; format: protein-complex assay; details: time 140.0 min
[8] = Antiproliferative activity against human SKNO-1 cells incubated for 72 hrs by CCK8 assay; format: functional, cell-based; details: SKNO-1, 72 h
[9] = biological target: T1, Cyclin-dependent kinase 5/CDK5 activator 1 (Homo sapiens); test: Inhibition of CDK5/p35NCK (unknown origin) at 100 nM preincubated for 20 mins followed by [gamma-33P]ATP addition measured after 120 mins in presence of ATP by Hot-SpotSM kinase assay relative to control; format: protein-complex assay; details: time 140.0 min
[10] = biological target: CDK12/Cyclin K (Homo sapiens) (UniProt O75909+Q9NYV4); test: Inhibition of CDK12/cyclinK (unknown origin) at 100 nM preincubated for 20 mins followed by [gamma-33P]ATP addition measured after 120 mins in presence of ATP by Hot-SpotSM kinase assay relative to control; format: protein-complex assay; details: time 140.0 min
CDK12/Cyclin K (Homo sapiens), sequence (O75909 whole entry, looked up): as the sequence (O75909 whole entry, looked up) above
CDK12/Cyclin K (Homo sapiens), sequence (Q9NYV4 whole entry, looked up): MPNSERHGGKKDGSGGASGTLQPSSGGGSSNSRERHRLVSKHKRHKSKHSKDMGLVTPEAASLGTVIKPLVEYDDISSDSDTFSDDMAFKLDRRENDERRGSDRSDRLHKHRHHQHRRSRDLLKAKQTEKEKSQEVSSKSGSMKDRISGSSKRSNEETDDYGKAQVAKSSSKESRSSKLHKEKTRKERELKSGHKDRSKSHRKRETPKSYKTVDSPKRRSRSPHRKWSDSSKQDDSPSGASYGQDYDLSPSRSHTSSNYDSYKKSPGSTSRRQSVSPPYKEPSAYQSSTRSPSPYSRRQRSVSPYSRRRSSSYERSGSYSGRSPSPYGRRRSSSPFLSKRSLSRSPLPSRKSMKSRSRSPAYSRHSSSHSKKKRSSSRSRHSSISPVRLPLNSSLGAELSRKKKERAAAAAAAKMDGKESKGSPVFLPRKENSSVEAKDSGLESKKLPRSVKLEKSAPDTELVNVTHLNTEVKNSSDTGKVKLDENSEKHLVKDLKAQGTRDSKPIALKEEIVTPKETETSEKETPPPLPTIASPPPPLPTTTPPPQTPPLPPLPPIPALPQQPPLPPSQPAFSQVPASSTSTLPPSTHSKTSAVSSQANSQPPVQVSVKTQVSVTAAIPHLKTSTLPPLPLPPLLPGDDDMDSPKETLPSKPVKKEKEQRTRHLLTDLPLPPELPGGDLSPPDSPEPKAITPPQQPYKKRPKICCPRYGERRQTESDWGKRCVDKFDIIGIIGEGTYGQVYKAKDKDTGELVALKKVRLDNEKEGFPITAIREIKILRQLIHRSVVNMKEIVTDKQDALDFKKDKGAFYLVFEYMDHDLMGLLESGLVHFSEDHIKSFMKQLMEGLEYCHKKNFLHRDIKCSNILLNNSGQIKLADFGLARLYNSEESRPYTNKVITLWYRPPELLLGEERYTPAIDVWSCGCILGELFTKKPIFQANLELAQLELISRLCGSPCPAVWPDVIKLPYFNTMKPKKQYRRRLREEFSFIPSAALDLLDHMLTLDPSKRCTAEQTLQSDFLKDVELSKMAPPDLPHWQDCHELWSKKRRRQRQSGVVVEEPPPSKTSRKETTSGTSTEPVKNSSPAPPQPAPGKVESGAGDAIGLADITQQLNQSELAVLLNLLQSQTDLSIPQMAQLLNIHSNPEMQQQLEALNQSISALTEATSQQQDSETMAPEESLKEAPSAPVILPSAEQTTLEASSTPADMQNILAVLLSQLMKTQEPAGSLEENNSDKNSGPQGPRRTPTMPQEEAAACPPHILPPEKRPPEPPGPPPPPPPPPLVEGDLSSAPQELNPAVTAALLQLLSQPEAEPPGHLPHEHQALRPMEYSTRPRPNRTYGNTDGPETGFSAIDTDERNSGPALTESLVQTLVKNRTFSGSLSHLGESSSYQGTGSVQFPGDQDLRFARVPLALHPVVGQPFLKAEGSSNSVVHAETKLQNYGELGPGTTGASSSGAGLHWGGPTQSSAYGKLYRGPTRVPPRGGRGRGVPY

[11] = biological target: Cyclin-dependent kinase 4/cyclin D1 (Homo sapiens) (UniProt P11802+P24385); test: Inhibition of CDK4/cyclinD1 (unknown origin) at 100 nM preincubated for 20 mins followed by [gamma-33P]ATP addition measured after 120 mins in presence of ATP by Hot-SpotSM kinase assay relative to control; format: protein-complex assay; details: time 140.0 min
Kasumi 1 [12] = test: Synergistic antiproliferative activity against human Kasumi 1 cells assessed as combination index incubated for 72 hrs in presence of Chidamide by CCK-8 assay; format: functional
[13] = biological target: CDK3/Cyclin E (Homo sapiens) (UniProt P24864+Q00526); test: Inhibition of CDK3/cyclinE1 (unknown origin) at 100 nM preincubated for 20 mins followed by [gamma-33P]ATP addition measured after 120 mins in presence of ATP by Hot-SpotSM kinase assay relative to control; format: protein-complex assay; details: time 140.0 min
CDK3/Cyclin E (Homo sapiens), sequence (P24864 whole entry, looked up): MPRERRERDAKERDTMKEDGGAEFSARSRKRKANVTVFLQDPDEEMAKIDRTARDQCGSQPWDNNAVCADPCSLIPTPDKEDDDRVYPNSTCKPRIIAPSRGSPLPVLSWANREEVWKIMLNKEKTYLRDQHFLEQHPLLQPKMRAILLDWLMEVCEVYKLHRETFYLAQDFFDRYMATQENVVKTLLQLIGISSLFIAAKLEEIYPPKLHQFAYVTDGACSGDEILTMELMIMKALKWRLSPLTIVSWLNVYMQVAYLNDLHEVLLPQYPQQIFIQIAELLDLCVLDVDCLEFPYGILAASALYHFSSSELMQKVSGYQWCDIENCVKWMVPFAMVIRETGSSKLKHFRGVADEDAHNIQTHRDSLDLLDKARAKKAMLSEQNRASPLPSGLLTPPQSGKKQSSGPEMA
CDK3/Cyclin E (Homo sapiens), sequence (Q00526 whole entry, looked up): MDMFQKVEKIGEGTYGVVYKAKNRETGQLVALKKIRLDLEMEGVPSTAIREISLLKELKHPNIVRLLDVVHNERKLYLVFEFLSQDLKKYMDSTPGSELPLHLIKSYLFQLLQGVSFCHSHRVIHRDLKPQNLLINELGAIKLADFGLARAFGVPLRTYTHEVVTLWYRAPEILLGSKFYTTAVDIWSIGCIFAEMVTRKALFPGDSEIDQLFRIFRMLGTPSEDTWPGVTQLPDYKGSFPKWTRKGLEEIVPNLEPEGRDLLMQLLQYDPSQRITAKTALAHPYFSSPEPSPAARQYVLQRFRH

[14] = biological target: CDK1/Cyclin E (Homo sapiens) (UniProt P06493+P24864); test: Inhibition of CDK1/cyclinE1 (unknown origin) at 100 nM preincubated for 20 mins followed by [gamma-33P]ATP addition measured after 120 mins in presence of ATP by Hot-SpotSM kinase assay relative to control; format: protein-complex assay; details: time 140.0 min
HL-60 = test: Antiproliferative activity against human HL-60 cells incubated for 72 hrs by CCK8 assay; format: functional, cell-based; details: HL-60, 72 h
[15] = biological target: Cyclin-dependent kinase 1/cyclin B1 (Homo sapiens) (UniProt P06493+P14635); test: Inhibition of CDK1/cyclinB1 (unknown origin) at 100 nM preincubated for 20 mins followed by [gamma-33P]ATP addition measured after 120 mins in presence of ATP by Hot-SpotSM kinase assay relative to control; format: protein-complex assay; details: time 140.0 min
[16] = biological target: CDK6/cyclin D1 (Homo sapiens) (UniProt P24385+Q00534); test: Inhibition of CDK6/cyclinD1 (unknown origin) at 100 nM preincubated for 20 mins followed by [gamma-33P]ATP addition measured after 120 mins in presence of ATP by Hot-SpotSM kinase assay relative to control; format: protein-complex assay; details: time 140.0 min

inhibition [1]: 74.6% | IC50 (U-937): 1150 nM | inhibition [3]: 87% | inhibition [4]: 33.2% | inhibition [5]: 76.9% | inhibition [6]: 6.49% | inhibition [7]: 24% | inhibition [9]: 62.5% | inhibition [10]: 85% | inhibition [11]: 68.7% | inhibition [13]: 26.5% | inhibition [14]: 31.4% | IC50 (HL-60): 2330 nM | inhibition [15]: 39.3% | inhibition [16]: 56.8%
SMILES: O=C(NC1CCNCC1)c1n[nH]cc1NC(=O)c1c(Cl)cccc1Cl [AT-7519]
IC50 (Kasumi 1 [2]): 1480 nM | IC50 [8]: 1220 nM | CI (Kasumi 1 [12]): <1

Reference: ChEMBL document CHEMBL5346903, “Discovery of novel and bioavailable histone deacetylases and cyclin-dependent kinases dual inhibitor to impair the stemness of leukemia cells” (Eur J Med Chem, 2023)
